Measurements: publication PMC5100313, “A new tool for the chemical genetic investigation of the Plasmodium falciparum Pfnek-2 NIMA-related kinase” (Malaria Journal, 2016)

Molecular target: T1, Pfnek-2(V24C) (Plasmodium falciparum, UniProt C0H4G2, V24C)
T1 construct: gene PF3D7_0525900
T1 sequence (C0H4G2 1-286 V24C): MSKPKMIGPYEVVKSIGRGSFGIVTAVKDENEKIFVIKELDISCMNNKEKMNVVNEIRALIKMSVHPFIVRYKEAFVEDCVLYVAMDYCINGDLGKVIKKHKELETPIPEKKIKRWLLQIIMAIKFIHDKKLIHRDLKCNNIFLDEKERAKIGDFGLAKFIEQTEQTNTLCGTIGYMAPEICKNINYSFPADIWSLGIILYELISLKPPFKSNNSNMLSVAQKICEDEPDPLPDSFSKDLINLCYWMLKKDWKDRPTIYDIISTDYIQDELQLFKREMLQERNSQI
Test: in vitro […]-ATP kinase assay (MBP substrate), washout, intact-protein LC-MS (mass shift […] Da)
Format: biochemical

## C#Cc1nc(Nc2ccc(S(N)(=O)=O)cc2)nc2[nH]cnc12 [NCL-00016066, 4-(6-ethynyl-9H-purin-2-ylamino) benzene sulfonamide]
  IC50: 501 nM
